Results published in ChEMBL document CHEMBL5579840, “Optimization of diastereomeric dihydropyridines as antimalarials” (Eur J Med Chem, 2024).
Activity calls are given as the source filed them. No cut-off for these calls is given here.

Columns and labels:
Plasmodium falciparum [1] = experiment: Antiplasmodial activity against chloroquine-sensitive Plasmodium falciparum 3D7; format: functional, organism-based
Plasmodium falciparum [2] = experiment: Antimalarial activity against Plasmodium falciparum W2 infected in RBC assessed as inhibition of parasite growth incubated for 72 hrs by YOYO1 staining based LSR II flow cytometer; format: functional, organism-based; details: W2, Erythrocyte
Plasmodium falciparum [3] = experiment: Fold resistance, ratio of EC50 for antiplasmodial activity against Plasmodium falciparum W2 infected in RBC assessed as inhibition of parasite growth incubated for 22 days to EC50 for antiplasmodial activity against Plasmodium falciparum W2 infected in RBC assessed as inhibition of parasite growth incubated for 72 hrs; format: functional
Plasmodium falciparum [4] = experiment: Antimalarial activity against Plasmodium falciparum W2 infected in RBC assessed as reduction in parasitemia at 700 nM measured immediately by YOYO1 staining based LSR II flow cytometer; format: functional, organism-based
Plasmodium falciparum [5] = experiment: Antimalarial activity against Plasmodium falciparum W2 infected in RBC assessed as parasitemia at 700 nM measured on day 4 by microscopic analysis relative to control; format: functional; details: time 4 day
Plasmodium falciparum [6] = experiment: Antimalarial activity against Plasmodium falciparum W2 infected in RBC assessed as inhibition of growth incubated for 22 days by YOYO1 staining based LSR II flow cytometer; format: functional, organism-based; details: W2, Erythrocyte, 528 h
Plasmodium falciparum [7] = experiment: Antimalarial activity against chloroquine-sensitive Plasmodium falciparum 3D7 infected in erythroctes incubated for 72 hrs by SYBR green 1 based spectrofluorometer; format: functional, organism-based, Erythrocyte; details: erythrocyte
Plasmodium falciparum [8] = experiment: Antimalarial activity against chloroquine-resistant Plasmodium falciparum K1 infected in erythroctes incubated for 72 hrs by SYBR green 1 based spectrofluorometer; format: functional, organism-based, Erythrocyte
Plasmodium berghei [9] = experiment: Antiplasmodial activity against Plasmodium berghei KBG-173 infected in male mouse assessed as inhibition of parasitemia at 50 mg/kg, po administered as single dose on day 1 post exposure and measured on day 3 post exposure relative to control; format: functional; details: KBG-173, 72 h, time 3 day
Plasmodium berghei [10] = experiment: Antiplasmodial activity against Plasmodium berghei KBG-173 infected in male mouse assessed as inhibition of parasitemia at 50 mg/kg, po administered as single dose on day 1 post exposure and measured on day 6 post exposure relative to control; format: functional; details: KBG-173, 72 h, time 3 day
Plasmodium berghei [11] = experiment: Antimalarial activity against liver stage Plasmodium berghei sporozoites expressing luciferase infected in human HepG2 cells; format: functional, organism-based
Plasmodium falciparum [12] = experiment: Antimalarial activity against chloroquine and pyrimethamine-resistant Plasmodium falciparum W2 infected in erythroctes incubated for 72 hrs by SYBR green 1 based spectrofluorometer; format: functional, organism-based; details: for EC50: W2, 72 h
Plasmodium falciparum [13] = experiment: Antimalarial activity against chloroquine,pyrimethamine,mefloquine and atovaquine-resistant Plasmodium falciparum TM90-C2B infected in erythroctes incubated for 72 hrs by SYBR green 1 based spectrofluorometer; format: functional, organism-based
[14] = Cytotoxicity against mouse J774.A1 cells; format: toxicity, cell-based

| SMILES | EC50 (Plasmodium falciparum [7]) | EC50 (Plasmodium falciparum [8]; erythrocyte) | inhibition in vivo at 50 mg/kg (Plasmodium berghei [9]) | inhibition in vivo at 50 mg/kg (Plasmodium berghei [10]) | EC50 [14] | other results |
| --- | --- | --- | --- | --- | --- | --- |
| COc1cc(OC)c(NC(=O)[C@H]2c3ccccc3C(=O)N(CC(C)C)[C@@H]2c2cccs2)cc1Cl |  |  |  |  |  | EC50 (Plasmodium falciparum [1]): < 50 nM |
| CCCOC(=O)C1=C(C)NC2=C(C(=O)CC(c3ccc(OC)c(OC)c3)C2)C1c1ccccc1F (stereo unspecified) |  |  |  |  |  | EC50 (Plasmodium falciparum [2]): 8.4 nM; Ratio EC50 (Plasmodium falciparum [3]): 311; EC50 (Plasmodium falciparum [1]): < 50 nM; Activity (Plasmodium falciparum [4]): Active; Activity (Plasmodium falciparum [5]): 0%; EC50 (Plasmodium falciparum [6]): 2610 nM |
| CCOc1ccc(N(C(C)=O)C2=C(N(C)C)C(=O)c3ccccc3C2=O)cc1 |  |  |  |  |  | EC50 (Plasmodium falciparum [1]): < 50 nM |
| CCOC(=O)C1=C(C)NC2=C(C(=O)OC(c3ccc(OC)c(OC)c3)C2)C1c1ccccc1Cl (stereo in doubt; 3B) [listing 1 of 2 here] | 260 nM | 53.9 nM | 100% | 77.6% |  |  |
| CCOC(=O)C1=C(C)NC2=C(C(=O)OC(c3ccc(OC)c(OC)c3)C2)C1c1ccccc1Cl (stereo in doubt; 3B) [listing 2 of 2 here] |  |  |  |  |  | Activity (Plasmodium berghei [11]): inactive; Activity (Plasmodium falciparum [12]): Active; Activity (Plasmodium falciparum [13]): Active |
| CCOC(=O)C1=C(C)NC2=C(C(=O)OC(c3ccc(OC)c(OC)c3)C2)C1c1ccc(Cl)cc1 (stereo in doubt; 5B) |  |  |  |  |  | Activity (Plasmodium falciparum [12]): Active; Activity (Plasmodium falciparum [13]): Active |
| CCOC(=O)C1=C(C)NC2=C(C(=O)OC(c3ccc(OC)c(OC)c3)C2)C1c1ccccc1C (stereo in doubt; 6B) |  |  |  |  |  | Activity (Plasmodium falciparum [12]): Active; Activity (Plasmodium falciparum [13]): Active |
| CCCC1=C(C(=O)OCC)C(c2ccccc2Cl)C2=C(CC(c3ccc(OC)c(OC)c3)OC2=O)N1 (stereo in doubt; 32B) | 16.1 nM | 9.2 nM | < 10% | < 10% |  | EC50 (Plasmodium falciparum [12]): < 100 nM; EC50 (Plasmodium falciparum [13]): < 100 nM |
| CCOC(=O)C1=C(C)NC2=C(C(=O)CC(c3ccc(OC)c(OC)c3)C2)C1c1ccc(Cl)cc1C (stereo in doubt; 37A) | 94 nM | 82.6 nM |  |  | > 20000 nM |  |
| CCOC(=O)C1=C(C)NC2=C(C(=O)CC(c3ccc(OC)c(OC)c3)C2)C1c1ccc(Cl)cc1C (stereo in doubt; 37B) | 14.5 nM | 15.9 nM | < 10% | < 10% |  |  |
| CCOC(=O)C1=C(C)NC2=C(C(=O)OC(c3ccc(OC)c(OC)c3)C2)C1c1ccc(Cl)cc1C (stereo in doubt; 38A) | > 4700 nM | 992 nM |  |  | > 20000 nM |  |
| CCOC(=O)C1=C(C)NC2=C(C(=O)OC(c3ccc(OC)c(OC)c3)C2)C1c1ccc(Cl)cc1C (stereo in doubt; 38B) | 10.6 nM | 29.1 nM | < 10% | < 10% |  |  |
| CCOC(=O)C1=C(C)NC2=C(C(=O)CC(c3ccc(Cl)c(OC)c3)C2)C1c1ccccc1Cl (stereo in doubt; 39A) | 630 nM | 397 nM |  |  | > 20000 nM |  |
| CCOC(=O)C1=C(C)NC2=C(C(=O)CC(c3ccc(Cl)c(OC)c3)C2)C1c1ccccc1Cl (stereo in doubt; 39B) [listing 1 of 2 here] | 18.5 nM | 22.3 nM | < 10% | < 10% |  |  |
| CCOC(=O)C1=C(C)NC2=C(C(=O)CC(c3ccc(Cl)c(OC)c3)C2)C1c1ccccc1Cl (stereo in doubt; 39B) [listing 2 of 2 here] |  |  |  |  |  | Activity (Plasmodium berghei [11]): inactive |
| CCOC(=O)C1=C(C)NC2=C(C(=O)OC(c3ccc(Cl)c(OC)c3)C2)C1c1ccccc1Cl (stereo in doubt; 40A) | > 7700 nM | 2870 nM |  |  | > 20000 nM |  |
| CCOC(=O)C1=C(C)NC2=C(C(=O)OC(c3ccc(Cl)c(OC)c3)C2)C1c1ccccc1Cl (stereo in doubt; 40B) | 135 nM | 217 nM | 66% | < 10% |  |  |
| CCOC(=O)C1=C(C)NC2=C(C(=O)CC(c3ccc(Cl)c(OC)c3)C2)C1c1ccc(Cl)cc1C (stereo in doubt; 41A) | 550 nM | 385 nM |  |  | > 20000 nM |  |
| CCOC(=O)C1=C(C)NC2=C(C(=O)CC(c3ccc(Cl)c(OC)c3)C2)C1c1ccc(Cl)cc1C (stereo in doubt; 41B) | 9.4 nM | 9.7 nM | < 10% | < 10% |  |  |

| SMILES | EC50 (Plasmodium falciparum [7]) | EC50 (Plasmodium falciparum [8]; erythrocyte) | inhibition in vivo at 50 mg/kg (Plasmodium berghei [9]) | inhibition in vivo at 50 mg/kg (Plasmodium berghei [10]) | EC50 [14] | other results |
| --- | --- | --- | --- | --- | --- | --- |
| CCOC(=O)C1=C(C)NC2=C(C(=O)OC(c3ccc(Cl)c(OC)c3)C2)C1c1ccc(Cl)cc1C (stereo in doubt; 42A) | > 13000 nM | > 13000 nM |  |  | > 20000 nM |  |
| CCOC(=O)C1=C(C)NC2=C(C(=O)OC(c3ccc(Cl)c(OC)c3)C2)C1c1ccc(Cl)cc1C (stereo in doubt; 42B) | 58 nM | 38.4 nM | 34% | 5.83% |  |  |
| CCCC1=C(C(=O)OCC)C(c2ccccc2Cl)C2=C(CC(c3ccc(OC)c(OC)c3)CC2=O)N1 (stereo in doubt; 43A) | 28.6 nM | 26.5 nM |  |  | > 20000 nM |  |
| CCCC1=C(C(=O)OCC)C(c2ccccc2Cl)C2=C(CC(c3ccc(OC)c(OC)c3)CC2=O)N1 (stereo in doubt; 43B) | 0.8 nM | 1.3 nM | < 10% | < 10% |  | EC50 (Plasmodium falciparum [12]): 3 nM; EC50 (Plasmodium falciparum [13]): 4.4 nM |
| CCCC1=C(C(=O)OCC)C(c2ccc(Cl)cc2C)C2=C(CC(c3ccc(OC)c(OC)c3)CC2=O)N1 (stereo in doubt; 44A) | 98.3 nM | 82.9 nM |  |  | > 20000 nM |  |
| CCCC1=C(C(=O)OCC)C(c2ccc(Cl)cc2C)C2=C(CC(c3ccc(OC)c(OC)c3)CC2=O)N1 (stereo in doubt; 44B) | 3.4 nM | 11.1 nM | 34% | 6.76% |  |  |
| CCCC1=C(C(=O)OCC)C(c2ccc(Cl)cc2C)C2=C(CC(c3ccc(OC)c(OC)c3)OC2=O)N1 (stereo in doubt; 45A) | 148 nM | 102 nM |  |  | > 20000 nM |  |
| CCCC1=C(C(=O)OCC)C(c2ccc(Cl)cc2C)C2=C(CC(c3ccc(OC)c(OC)c3)OC2=O)N1 (stereo in doubt; 45B) | 5.1 nM | 3.9 nM | < 10% | < 10% |  |  |
| CCCC1=C(C(=O)OCC)C(c2ccc(Cl)cc2C)C2=C(CC(c3ccc(Cl)c(OC)c3)CC2=O)N1 (stereo in doubt; 46A) | 319 nM | 244 nM |  |  | > 20000 nM |  |
| CCCC1=C(C(=O)OCC)C(c2ccc(Cl)cc2C)C2=C(CC(c3ccc(Cl)c(OC)c3)CC2=O)N1 (stereo in doubt; 46B) | 10.4 nM | 19.8 nM | < 10% | < 10% |  |  |
| CCCC1=C(C(=O)OCC)C(c2ccc(Cl)cc2C)C2=C(CC(c3ccc(Cl)c(OC)c3)OC2=O)N1 (stereo in doubt; 47B) | 22.7 nM | 21.5 nM | < 10% | < 10% |  |  |
| CCCC1=C(C(=O)OCC)C(c2ccc(Cl)cc2C)C2=C(CC(c3cc(OC)ccc3OC)CC2=O)N1 (stereo in doubt; 48A) | 542 nM | 228 nM |  |  | > 20000 nM |  |
| COCC1=C(C(=O)OC)C(c2ccc(Cl)cc2C)C2=C(CC(c3ccc(OC)c(OC)c3)CC2=O)N1 (stereo in doubt; 51A) | 39.6 nM | 21.6 nM |  |  | > 20000 nM |  |
| COCC1=C(C(=O)OC)C(c2ccc(Cl)cc2C)C2=C(CC(c3ccc(OC)c(OC)c3)CC2=O)N1 (stereo in doubt; 51B) [listing 1 of 2 here] | 2.5 nM | 6.2 nM | 100% | < 10% |  |  |
| COCC1=C(C(=O)OC)C(c2ccc(Cl)cc2C)C2=C(CC(c3ccc(OC)c(OC)c3)CC2=O)N1 (stereo in doubt; 51B) [listing 2 of 2 here] |  |  |  |  |  | Activity (Plasmodium berghei [11]): inactive |
| CCOC(=O)C1=C(C)NC2=C(C(=O)OC(c3cc(OC)c(OC)c(OC)c3)C2)C1c1ccccc1Cl (stereo in doubt; 54A) | 322 nM | 315 nM |  |  | > 20000 nM |  |
| COCC1=C(C(=O)OC)C(c2ccc(Cl)cc2)C2=C(CC(c3cc(OC)c(OC)c(OC)c3)OC2=O)N1 (stereo in doubt; 56A) | 61 nM |  |  |  | > 20000 nM | EC50 (Plasmodium falciparum [8]; Plasmodium falciparum, K1, Erythrocyte, 72 h): 62.4 nM |
| CCN(CC)Cc1cc(Nc2ccnc3cc(Cl)ccc23)ccc1O [AMODIAQUINE] |  |  | 100% | 100% |  |  |
